Read-outs that look alike come from different tables or passages of the source.
Assays:
Format in all cases: in vivo
kochia (Kochia scoparia) = experiment: Test C postemergence greenhouse test, plant response rating 0-100; conditions: Bassia scoparia, post-emergence
Procedure, shortened: (§1)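 Visual rating vs. controls, 0 (no effect) to 100 (complete control), 13–15 d after postemergence treatment. Potted plants, 1- to 4-leaf stage (2–18 cm), greenhouse-held.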

wild oat (Avena fatua) = experiment: as above; conditions: Avena fatua, post-emergence
Procedure, shortened: as §1

[1] = tested on: chickweed (common chickweed, Stellaria media); experiment: as above; conditions: Stellaria media, post-emergence
Procedure, shortened: as §1

[2] = tested on: velvetleaf (Abutilon theophrasti); experiment: Test A pre-/postemergence greenhouse herbicide test, visual injury rating 0-100; conditions: for pest or weed control at 500 g/ha: 500 g ai/ha
Procedure, shortened: (§2)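 Seeds sown in loam soil–sand blend; preemergence directed soil spray and, simultaneously, postemergence spray on plants 2 to 10 cm tall at one- to two-leaf stage. Compounds formulated in non-phytotoxic solvent mixture with surfactant. Injury rated visually versus untreated controls after ~10 days in greenhouse.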

corn (Zea mays) = experiment: as above; conditions: for plant injury at 500 g/ha: 500 g ai/ha
Procedure, shortened: as §2

[3] = tested on: giant foxtail (Setaria faberii); experiment: as above; conditions: for pest or weed control at 500 g/ha: 500 g ai/ha
Procedure, shortened: as §2

[4] = tested on: pigweed (Amaranthus retroflexus); experiment: as above; conditions: for pest or weed control at 500 g/ha: 500 g ai/ha
Procedure, shortened: as §2

[5] = tested on: barnyardgrass (Echinochloa crus-galli); experiment: as above; conditions: for pest or weed control at 500 g/ha: 500 g ai/ha
Procedure, shortened: as §2

[6] = tested on: large (Lg) crabgrass (Digitaria sanguinalis); experiment: as above; conditions: for pest or weed control at 500 g/ha: 500 g ai/ha
Procedure, shortened: as §2

[7] = tested on: wheat (Triticum aestivum); experiment: as above; conditions: for plant injury at 500 g/ha: 500 g ai/ha
Procedure, shortened: as §2

[8] = tested on: morningglory (Ipomoea spp.); experiment: as above; conditions: for pest or weed control at 500 g/ha: 500 g ai/ha
Procedure, shortened: as §2

[9] = tested on: morningglory (Ipomoea coccinea); experiment: Test C pre-/postemergence greenhouse test, plant response rating 0-100; conditions: Ipomoea; for pest or weed control at 62 g/ha: 62 g ai/ha; for pest or weed control at 125 g/ha: 125 g ai/ha; for pest or weed control at 250 g/ha: 250 g ai/ha; for pest or weed control at 500 g/ha: 500 g ai/ha
Procedure, shortened: (§3)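 Greenhouse test. Preemergence: seed in loam:sand, sprayed with formulated chemical (solvent + surfactant). Postemergence: 1–4 leaf plants, 2–18 cm, peat-based potting medium. Hold 13–15 d; score visually, 0 (none) to 100 (complete control); dash = not tested.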

[10] = tested on: oilseed rape (Brassica napus); experiment: as above
Procedure, shortened: as §3

[11] = tested on: galium (catchweed bedstraw, Galium aparine); experiment: as above; conditions: Galium; for pest or weed control at 62 g/ha: 62 g ai/ha; for pest or weed control at 125 g/ha: 125 g ai/ha; for pest or weed control at 250 g/ha: 250 g ai/ha; for pest or weed control at 500 g/ha: 500 g ai/ha
Procedure, shortened: as §3

[12] = post-emergence, Postemergence, read-out: Plant response rating (0 to 100), Morningglory
[13] = post-emergence, Postemergence, scale 0 to 100
[14] = pre-emergence, Preemergence, read-out: Plant response rating, Morningglory
[15] = post-emergence, Postemergence, read-out: Plant response rating (0 to 100), Galium
[16] = pre-emergence, Preemergence, read-out: Plant response rating, Galium

COCC(=O)n1cc(C(=O)c2ccccc2)c(-c2cc(Cl)cc(Cl)c2)n1 [Compound 16, 1-[4-benzoyl-3-(3,5-dichlorophenyl)-1H-pyrazol-1-yl]-2-methoxyethanone]
pest or weed control at 62 g/ha (kochia (Kochia scoparia); 62 g ai/ha): 80%
pest or weed control at 125 g/ha (kochia (Kochia scoparia); 125 g ai/ha): 85%
pest or weed control at 250 g/ha (kochia (Kochia scoparia); 250 g ai/ha, scale 0 to 100): 90%
pest or weed control at 500 g/ha (kochia (Kochia scoparia); 500 g ai/ha, scale 0 to 100): 90%
pest or weed control at 62 g/ha (wild oat (Avena fatua); 62 g ai/ha): 0%
pest or weed control at 125 g/ha (wild oat (Avena fatua); 125 g ai/ha): 0%
pest or weed control at 250 g/ha (wild oat (Avena fatua); 250 g ai/ha, scale 0 to 100): 0%
pest or weed control at 500 g/ha (wild oat (Avena fatua); 500 g ai/ha, scale 0 to 100): 0%
pest or weed control at 62 g/ha ([1]; 62 g ai/ha): 95%
pest or weed control at 125 g/ha ([1]; 125 g ai/ha): 100%
pest or weed control at 250 g/ha ([1]; 250 g ai/ha, scale 0 to 100): 100%
pest or weed control at 500 g/ha ([1]; 500 g ai/ha, scale 0 to 100): 100%
pest or weed control at 125 g/ha ([2]; Abutilon theophrasti, post-emergence, 240 h, Postemergence, 125 g ai/ha, read-out: Plant response rating (0 to 100 scale), Velvetleaf): 80%
pest or weed control at 500 g/ha ([2]; Abutilon theophrasti, post-emergence, 240 h, Postemergence, read-out: Plant response rating (0 to 100 scale), Velvetleaf): 90%
pest or weed control at 500 g/ha ([2]; Abutilon theophrasti, pre-emergence, 240 h, Preemergence, read-out: Plant response rating (0 to 100 scale), Velvetleaf): 80%
Velvetleaf plant response rating (0 = no effect, 100 = complete control) ([2]; Preemergence, 125 g ai/ha): 20
Corn plant response rating (0 = no effect, 100 = complete control) (corn (Zea mays); Preemergence, 125 g ai/ha): 0
plant injury at 125 g/ha (corn (Zea mays); Zea mays, post-emergence, 240 h, Postemergence, 125 g ai/ha, read-out: Plant response rating (0 to 100 scale), Corn): 0%
plant injury at 500 g/ha (corn (Zea mays); Zea mays, post-emergence, 240 h, Postemergence, read-out: Plant response rating (0 to 100 scale), Corn): 0%
plant injury at 500 g/ha (corn (Zea mays); Zea mays, pre-emergence, 240 h, Preemergence, read-out: Plant response rating (0 to 100 scale), Corn): 0%
Foxtail, Giant plant response rating (0 = no effect, 100 = complete control) ([3]; Preemergence, 125 g ai/ha): 0
pest or weed control at 125 g/ha ([3]; Setaria faberi, post-emergence, 240 h, Postemergence, 125 g ai/ha, read-out: Plant response rating (0 to 100 scale), Foxtail, Giant): 0%
pest or weed control at 500 g/ha ([3]; Setaria faberi, post-emergence, 240 h, Postemergence, read-out: Plant response rating (0 to 100 scale), Foxtail, Giant): 0%
pest or weed control at 500 g/ha ([3]; Setaria faberi, pre-emergence, 240 h, Preemergence, read-out: Plant response rating (0 to 100 scale), Foxtail, Giant): 0%
pest or weed control at 125 g/ha ([4]; Amaranthus retroflexus, post-emergence, 240 h, Postemergence, 125 g ai/ha, read-out: Plant response rating (0 to 100 scale), Pigweed): 80%
pest or weed control at 500 g/ha ([4]; Amaranthus retroflexus, post-emergence, 240 h, Postemergence, read-out: Plant response rating (0 to 100 scale), Pigweed): 100%
pest or weed control at 500 g/ha ([4]; Amaranthus retroflexus, pre-emergence, 240 h, Preemergence, read-out: Plant response rating (0 to 100 scale), Pigweed): 100%
Pigweed plant response rating (0 = no effect, 100 = complete control) ([4]; Preemergence, 125 g ai/ha): 60
pest or weed control at 125 g/ha ([5]; Echinochloa crus-galli, post-emergence, 240 h, Postemergence, 125 g ai/ha, read-out: Plant response rating (0 to 100 scale), Barnyardgrass): 0%
pest or weed control at 500 g/ha ([5]; Echinochloa crus-galli, post-emergence, 240 h, Postemergence, read-out: Plant response rating (0 to 100 scale), Barnyardgrass): 0%
pest or weed control at 500 g/ha ([5]; Echinochloa crus-galli, pre-emergence, 240 h, Preemergence, read-out: Plant response rating (0 to 100 scale), Barnyardgrass): 0%
Barnyardgrass plant response rating (0 = no effect, 100 = complete control) ([5]; Preemergence, 125 g ai/ha): 0
pest or weed control at 125 g/ha ([6]; Digitaria sanguinalis, post-emergence, 240 h, Postemergence, 125 g ai/ha, read-out: Plant response rating (0 to 100 scale), Crabgrass, Large): 0%
pest or weed control at 500 g/ha ([6]; Digitaria sanguinalis, post-emergence, 240 h, Postemergence, read-out: Plant response rating (0 to 100 scale), Crabgrass, Large): 0%
pest or weed control at 500 g/ha ([6]; Digitaria sanguinalis, pre-emergence, 240 h, Preemergence, read-out: Plant response rating (0 to 100 scale), Crabgrass, Large): 0%
Crabgrass, Large plant response rating (0 = no effect, 100 = complete control) ([6]; Preemergence, 125 g ai/ha): 0
Wheat plant response rating (0 = no effect, 100 = complete control) ([7]; Preemergence, 125 g ai/ha): 0
plant injury at 125 g/ha ([7]; Triticum aestivum, post-emergence, 240 h, Postemergence, 125 g ai/ha, read-out: Plant response rating (0 to 100 scale), Wheat): 0%
plant injury at 500 g/ha ([7]; Triticum aestivum, post-emergence, 240 h, Postemergence, read-out: Plant response rating (0 to 100 scale), Wheat): 0%
plant injury at 500 g/ha ([7]; Triticum aestivum, pre-emergence, 240 h, Preemergence, read-out: Plant response rating (0 to 100 scale), Wheat): 0%
pest or weed control at 125 g/ha ([8]; Ipomoea, post-emergence, 240 h, Postemergence, 125 g ai/ha, read-out: Plant response rating (0 to 100 scale), Morningglory): 0%
pest or weed control at 500 g/ha ([8]; Ipomoea, post-emergence, 240 h, Postemergence, read-out: Plant response rating (0 to 100 scale), Morningglory): 0%
pest or weed control at 500 g/ha ([8]; Ipomoea, pre-emergence, 240 h, Preemergence, read-out: Plant response rating (0 to 100 scale), Morningglory): 0%
Morningglory plant response rating (0 = no effect, 100 = complete control) ([8]; Preemergence, 125 g ai/ha): 0
pest or weed control at 62 g/ha [9, 12]: 0%
pest or weed control at 125 g/ha [9, 12]: 0%
pest or weed control at 250 g/ha [9, 13]: 0%
pest or weed control at 500 g/ha [9, 13]: 0%
pest or weed control at 62 g/ha [9, 14]: 0%
pest or weed control at 125 g/ha [9, 14]: 0%
pest or weed control at 250 g/ha ([9]; pre-emergence, Preemergence): 0%
pest or weed control at 500 g/ha ([9]; pre-emergence, Preemergence): 0%
Plant response rating (0 to 100), Oilseed Rape ([10]; Postemergence, 62 g ai/ha): 50
Plant response rating (0 to 100), Oilseed Rape ([10]; Postemergence, 125 g ai/ha): 60
Plant response rating, Oilseed Rape ([10]; Postemergence, 250 g ai/ha, scale 0 to 100): 90
Plant response rating, Oilseed Rape ([10]; Postemergence, 500 g ai/ha, scale 0 to 100): 90
Plant response rating, Oilseed Rape ([10]; Preemergence, 62 g ai/ha): 0
Plant response rating, Oilseed Rape ([10]; Preemergence, 125 g ai/ha): 50
Plant response rating, Oilseed Rape ([10]; Preemergence, 250 g ai/ha): 100
Plant response rating, Oilseed Rape ([10]; Preemergence, 500 g ai/ha): 100
pest or weed control at 62 g/ha [11, 15]: 0%
pest or weed control at 125 g/ha [11, 15]: 20%
pest or weed control at 250 g/ha [11, 13]: 20%
pest or weed control at 500 g/ha [11, 13]: 50%
pest or weed control at 62 g/ha [11, 16]: 0%
pest or weed control at 125 g/ha [11, 16]: 0%
pest or weed control at 250 g/ha ([11]; pre-emergence, Preemergence): 0%
pest or weed control at 500 g/ha ([11]; pre-emergence, Preemergence): 0%

— patent US10167262B2, “Herbicidal substituted 3-arylpyrazoles” (FMC CORPORATION, priority 2014, dated 2019)
